From ChEMBL document CHEMBL5528066, “Discovery of Novel N-(Anthracen-9-ylmethyl) Benzamide Derivatives as ZNF207 Inhibitors Promising in Treating Glioma” (J Med Chem, 2024)
The source made the active and inactive calls. No cut-off for these calls is given here.

Key:
H4 [1] = test: Antiproliferative activity against human H4 cells assessed as inhibition of cell growth measured after 72 hrs by CCK-8 assay; assay type: functional, cell-based; conditions: H4, 72 h
[2] = biological target: T1, BUB3-interacting and GLEBS motif-containing protein ZNF207 (Homo sapiens, UniProt O43670); test: Binding affinity to human ZNF207 assessed as dissociation constant by SPR analysis
T1 sequence (O43670 whole entry): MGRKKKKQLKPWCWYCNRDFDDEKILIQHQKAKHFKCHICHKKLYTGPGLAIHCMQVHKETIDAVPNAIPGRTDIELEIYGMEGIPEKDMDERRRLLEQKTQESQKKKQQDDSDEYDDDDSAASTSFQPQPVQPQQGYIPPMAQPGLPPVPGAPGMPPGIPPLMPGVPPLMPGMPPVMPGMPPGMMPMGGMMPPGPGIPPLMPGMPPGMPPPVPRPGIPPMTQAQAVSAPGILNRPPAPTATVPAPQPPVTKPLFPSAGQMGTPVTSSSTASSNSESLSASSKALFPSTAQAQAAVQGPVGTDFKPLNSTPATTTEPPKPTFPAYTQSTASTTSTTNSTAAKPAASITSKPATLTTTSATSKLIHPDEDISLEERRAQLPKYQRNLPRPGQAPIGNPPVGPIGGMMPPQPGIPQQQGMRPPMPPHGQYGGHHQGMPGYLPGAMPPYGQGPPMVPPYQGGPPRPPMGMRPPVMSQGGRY

[3] = biological target: T1, BUB3-interacting and GLEBS motif-containing protein ZNF207; test: Binding affinity to ZNF207 in human H4 cells assessed as thermal stabilization by measuring increase in melting temperature at 30 uM incubated for 3 hrs by CETSA; assay type: cell-based
AGS = test: Antiproliferative activity against human AGS cells assessed as inhibition of cell growth incubated for 72 hrs by CCK-8 assay; assay type: functional, cell-based
Hs 683 [4] = test: Inhibition of sphere formation in human Hs 683 cells incubated for 168 hrs by microscopic analysis; assay type: functional, cell-based; conditions: Hs 683, 168 h
LN-229 [5] = test: Inhibition of sphere formation in human LN-229 cells assessed as fold reduction in sphere initiating frequency at 2 uM incubated for 10 days by microscopic analysis relative to control; assay type: functional; conditions: time 10 day
LN-229 [6] = test: Inhibition of sphere formation in human LN-229 cells assessed as fold reduction in sphere initiating frequency at 8 uM incubated for 10 days by microscopic analysis relative to control; assay type: functional; conditions: time 10 day
Hs 683 [7] = test: Inhibition of sphere formation in human Hs 683 cells assessed as fold reduction in sphere initiating frequency at 4 uM incubated for 10 days by microscopic analysis relative to control; assay type: functional; conditions: time 10 day
Hs 683 [8] = test: Inhibition of sphere formation in human Hs 683 cells assessed as fold reduction in sphere initiating frequency at 8 uM incubated for 10 days by microscopic analysis relative to control; assay type: functional; conditions: time 10 day
U-251 [9] = test: Induction of apoptosis in human U-251MG cells at 1.25 uM incubated for 24 hrs by Annexin V-FITC/PI staining based flow cytometry analysis; assay type: functional, cell-based
U-251 [10] = test: Induction of apoptosis in human U-251MG cells assessed as apoptotic cells at 2.5 uM incubated for 24 hrs by Annexin V-FITC/PI staining based flow cytometry analysis relative to control; assay type: functional
H4 [11] = test: Downregulation of SOX2 protein expression in human H4 cells at 2 to 4 uM incubated for 48 hrs by Western blot analysis; assay type: functional, cell-based; conditions: dose 2-4 µM
[12] = Drug concentration in male Sprague-Dawley rat brain at 45 mg/kg, po measured after 8 hrs by LC-MS/MS analysis; assay type: ADME, organism-based; conditions: read-out: Ct
[13] = Drug concentration in female Sprague-Dawley rat spleen at 45 mg/kg, po measured after 8 hrs by LC-MS/MS analysis; assay type: ADME, organism-based; conditions: read-out: Ct
[14] = Drug concentration in male Sprague-Dawley rat stomach at 45 mg/kg, po measured after 8 hrs by LC-MS/MS analysis; assay type: ADME, organism-based; conditions: read-out: Ct
[15] = Drug concentration in male Sprague-Dawley rat intestine at 45 mg/kg, po measured after 8 hrs by LC-MS/MS analysis; assay type: ADME, organism-based; conditions: read-out: Ct
[16] = Drug concentration in female Sprague-Dawley rat intestine at 45 mg/kg, po measured after 8 hrs by LC-MS/MS analysis; assay type: ADME, organism-based; conditions: read-out: Ct
MDR1 = test: Apparent permeability across basolateral to apical side in MDCKII-MDR1 cells assessed as drug recovery at 1 uM incubated for 2 hrs by LC-MS/MS analysis; assay type: ADME, cell-based, Canis lupus familiaris; conditions: dog, MDCK-MDR1, read-out: Drug recovery
[17] = Toxicity in male C57BL/6 mouse assessed as change in cellular structure of spleen at 45 mg/kg, po administered once a day for 2 weeks by H and E staining based analysis; assay type: organism-based; conditions: in vivo, 336 h
[18] = Toxicity in female C57BL/6 mouse assessed as change in cellular structure of spleen at 45 mg/kg, po administered once a day for 2 weeks by H and E staining based analysis; assay type: organism-based; conditions: in vivo, 336 h
[19] = Toxicity in female C57BL/6 mouse assessed as change in cellular structure of thymus at 45 mg/kg, po administered once a day for 2 weeks by H and E staining based analysis; assay type: organism-based; conditions: in vivo, 336 h
LN-229 [20] = test: Antitumor activity against human LN-229 cells xenografted in BALB/c nude mouse assessed as tumor growth delay by measuring tumor volume at 45 mg/kg, po administered once a day and measured every 2 days for 49 days (reference value: 700 […]); assay type: functional; conditions: time 49 day
H4 [21] = test: Inhibition of sphere formation in human H4 cells at 1 uM measured after 10 days in well containing 10000 cells by microscopic analysis; assay type: functional, cell-based; conditions: time 10.0 day
H4 [22] = test: Inhibition of sphere formation in human H4 cells at 4 uM measured after 10 days in well containing 10000 cells by microscopic analysis; assay type: functional, cell-based; conditions: time 10.0 day
H4 [23] = test: Inhibition of sphere formation in human H4 cells at 2 uM measured after 10 days in well containing 100 cells by microscopic analysis; assay type: functional, cell-based; conditions: time 10.0 day
H4 [24] = test: Inhibition of sphere formation in human H4 cells at 8 uM measured after 10 days in well containing 100 cells by microscopic analysis; assay type: functional, cell-based; conditions: time 10.0 day
H4 [25] = test: Inhibition of sphere formation in human H4 cells at 1 uM measured after 10 days in well containing 1 cells by microscopic analysis; assay type: functional, cell-based; conditions: time 10.0 day
LN-229 [26] = test: Inhibition of sphere formation in human LN-229 cells at 2 uM measured after 10 days in well containing 10000 cells by microscopic analysis; assay type: functional, cell-based; conditions: time 10.0 day
LN-229 [27] = test: Inhibition of sphere formation in human LN-229 cells at 8 uM measured after 10 days in well containing 10000 cells by microscopic analysis; assay type: functional, cell-based; conditions: time 10.0 day
LN-229 [28] = test: Inhibition of sphere formation in human LN-229 cells at 4 uM measured after 10 days in well containing 100 cells by microscopic analysis; assay type: functional, cell-based; conditions: time 10.0 day
LN-229 [29] = test: Inhibition of sphere formation in human LN-229 cells at 8 uM measured after 10 days in well containing 100 cells by microscopic analysis; assay type: functional, cell-based; conditions: time 10.0 day
LN-229 [30] = test: Inhibition of sphere formation in human LN-229 cells at 4 uM measured after 10 days in well containing 10 cells by microscopic analysis; assay type: functional, cell-based; conditions: time 10.0 day
LN-229 [31] = test: Inhibition of sphere formation in human LN-229 cells at 4 uM measured after 10 days in well containing 1 cells by microscopic analysis; assay type: functional, cell-based; conditions: time 10.0 day
Hs 683 [32] = test: Inhibition of sphere formation in human Hs 683 cells at 1 uM measured after 10 days in well containing 10000 cells by microscopic analysis; assay type: functional, cell-based; conditions: time 10.0 day
Hs 683 [33] = test: Inhibition of sphere formation in human Hs 683 cells at 1 uM measured after 10 days in well containing 1000 cells by microscopic analysis; assay type: functional, cell-based; conditions: time 10.0 day
U-251 [34] = test: Inhibition of sphere formation in human U-251MG cells at 2 uM measured after 10 days in well containing 10000 cells by microscopic analysis; assay type: functional, cell-based; conditions: time 10.0 day
U-251 [35] = test: Inhibition of sphere formation in human U-251MG cells at 4 uM measured after 10 days in well containing 10000 cells by microscopic analysis; assay type: functional, cell-based; conditions: time 10.0 day
U-251 [36] = test: Inhibition of sphere formation in human U-251MG cells at 8 uM measured after 10 days in well containing 100 cells by microscopic analysis; assay type: functional, cell-based; conditions: time 10.0 day
U-251 [37] = test: Inhibition of sphere formation in human U-251MG cells at 4 uM measured after 10 days in well containing 10 cells by microscopic analysis; assay type: functional, cell-based; conditions: time 10.0 day
U-251 [38] = test: Inhibition of sphere formation in human U-251MG cells at 4 uM measured after 10 days in well containing 1 cells by microscopic analysis; assay type: functional, cell-based; conditions: time 10.0 day

Kd [2]: 67 nM
ΔTm [3]: 1.9 °C
IC50 (AGS): 9420 nM
IC50 (Hs 683 [4]): 2100 nM
concentration at 8 h [12]: 9.2 ng/g
concentration at 8 h [13]: 2330 ng/g
concentration at 8 h [14]: 608 ng/g
concentration at 8 h [15]: 688 ng/g
concentration at 8 h [16]: 442 ng/g
recovery at 2 h, 1 µM (MDR1): 101%
Compound: N#CC1(C(=O)NCCC2CCN(Cc3ccccc3)CC2)CC2(Br)c3ccccc3C1c1ccccc12 (racemic)
IC50 (H4 [1]): 720 nM
fold change (FC) (LN-229 [5]): 22.43
fold change (FC) (LN-229 [6]): 107.58
fold change (FC) (Hs 683 [7]): 39.23
fold change (FC) (Hs 683 [8]): 104.96
Activity (U-251 [9]): Active
Activity (U-251 [10]): ~20%
Activity (H4 [11]): Active
Activity [17]: Non-Toxic
Activity [18]: Non-Toxic
Activity [19]: Non-Toxic
Activity (LN-229 [20]): 200 mm3
inhibition (H4 [21]): inactive
inhibition (H4 [22]): inactive
inhibition (H4 [23]): Active
inhibition (H4 [24]): Active
inhibition (H4 [25]): Active
inhibition (LN-229 [26]): inactive
inhibition (LN-229 [27]): inactive
inhibition (LN-229 [28]): Active
inhibition (LN-229 [29]): Active
inhibition (LN-229 [30]): Active
inhibition (LN-229 [31]): Active
inhibition (Hs 683 [32]): inactive
inhibition (Hs 683 [33]): inactive
inhibition (U-251 [34]): inactive
inhibition (U-251 [35]): inactive
inhibition (U-251 [36]): Active
inhibition (U-251 [37]): Active
inhibition (U-251 [38]): Active
